According to the NIST ThermoML archive (doi:10.1021/acs.jced.7b00690):

Assay: mn = molality of the nth substance listed, in mol/kg
Details: 100 kPa, Liquid, Vibrating tube method

O=C([O-])C(=O)[O-].[Na+].[Na+] [sodium oxalate] + O
Details | mass density [kg/m3]
298.15 K, m1 = 0.263 | 1025.1
298.15 K, m1 = 0.265 | 1020.9
298.15 K, m1 = 0.272 | 1020.9
323.15 K, m1 = 0.317 | 1020.3
323.15 K, m1 = 0.334 | 1022.4
343.15 K, m1 = 0.385 | 1016.5
